Test results: patent US11584734B2, “Tricyclic compounds as histone methyltransferase inhibitors” (GLOBAL BLOOD THERAPEUTICS, INC., priority 2017, dated 2023)
Where a name gives a salt, the structure may show the parent alone. Each block holds one compound with its values, some of them ahead of it.

Biological target: T1, G9a (Homo sapiens, UniProt Q96KQ7)
T1 sequence (Q96KQ7 1-1210): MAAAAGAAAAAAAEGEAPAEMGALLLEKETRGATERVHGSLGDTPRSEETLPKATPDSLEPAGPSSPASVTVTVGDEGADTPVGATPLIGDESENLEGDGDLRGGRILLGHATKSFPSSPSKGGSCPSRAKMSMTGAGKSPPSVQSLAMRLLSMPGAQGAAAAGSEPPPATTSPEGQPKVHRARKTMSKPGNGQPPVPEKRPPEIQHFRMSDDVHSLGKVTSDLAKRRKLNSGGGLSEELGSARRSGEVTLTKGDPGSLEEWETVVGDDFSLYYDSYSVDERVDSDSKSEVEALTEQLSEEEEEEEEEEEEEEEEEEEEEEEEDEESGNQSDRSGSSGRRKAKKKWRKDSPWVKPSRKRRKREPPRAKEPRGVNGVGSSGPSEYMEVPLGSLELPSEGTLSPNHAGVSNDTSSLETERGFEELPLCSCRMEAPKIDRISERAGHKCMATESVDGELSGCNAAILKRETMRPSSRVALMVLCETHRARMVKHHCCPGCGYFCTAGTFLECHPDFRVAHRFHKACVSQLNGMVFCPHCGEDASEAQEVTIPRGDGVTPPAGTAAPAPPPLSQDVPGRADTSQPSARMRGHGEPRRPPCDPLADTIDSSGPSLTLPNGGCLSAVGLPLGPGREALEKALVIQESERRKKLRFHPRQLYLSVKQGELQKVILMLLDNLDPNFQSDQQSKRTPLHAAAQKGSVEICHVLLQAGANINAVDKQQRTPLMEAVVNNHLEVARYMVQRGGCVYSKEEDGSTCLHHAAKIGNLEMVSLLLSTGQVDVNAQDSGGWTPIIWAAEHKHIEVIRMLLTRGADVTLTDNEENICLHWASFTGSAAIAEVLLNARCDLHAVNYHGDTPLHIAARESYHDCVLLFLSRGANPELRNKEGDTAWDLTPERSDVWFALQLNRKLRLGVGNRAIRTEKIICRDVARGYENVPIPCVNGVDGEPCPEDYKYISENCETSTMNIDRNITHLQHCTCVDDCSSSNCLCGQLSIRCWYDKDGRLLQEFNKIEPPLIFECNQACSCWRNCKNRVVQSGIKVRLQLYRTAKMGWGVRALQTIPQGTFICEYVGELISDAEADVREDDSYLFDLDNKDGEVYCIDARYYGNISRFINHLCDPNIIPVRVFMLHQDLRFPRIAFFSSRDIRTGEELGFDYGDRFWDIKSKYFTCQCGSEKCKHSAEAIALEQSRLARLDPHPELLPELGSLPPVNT
Experiment: G9a AlphaLISA enzymatic activity assay
Assay type: biochemical
Conditions: negative log of IC50 in molar, 0.15 nM G9a, 15 uM S-adenosyl-methionine, 100 nM biotinylated histone 3 peptide (1-21)
Text: The G9a AlphaLISA assay was used to detect the methyl modifications of a biotinylated histone H3 peptide by the compounds. These modifications are done by the histone methyl transferase activity of the G9a enzyme. The assay consists of reading a chemiluminescent signal at 615 nm; this signal is generated by a laser excitation at 680 nm that transfers a reactive singlet oxygen between the donor beads and acceptor beads. Donor beads are streptavidin conjugated and bind to the biotin on the peptide. Acceptor beads are conjugated with an antibody that recognizes the specific G9a methyl mark on the peptide. If there is a methyl mark on the peptide, the acceptor beads will bind to the peptide. Upon binding, the acceptor beads will be in close proximity (<200 nm) of the donor beads and when the donor beads are excited, the transfer of the oxygen can occur and a strong signal will be generated. If there is no methyl mark, the interaction between beads will not occur and signal will be at background levels.
For the assay, the following buffer was used to set up reactions: 50 mM Tris-HCl pH9, 50 mM NaCl, 0.01% Tween-20 and 1 mM DTT (added fresh prior to starting the reactions). […] The reaction is incubated at rt for 1 hour and subsequently quenched by the addition of the acceptor beads (anti-H3k9me2 AlphaLISA acceptor beads, PerkinElmer #AL117) at a final concentration of 20 ug/mL. The acceptor beads are incubated for 1 hour. After 1 hour, the donor beads are added at a final concentration of 20 ug/mL (Alpha Streptavidin donor beads, PerkinElmer #6760002). Donor beads are incubated for 0.5 hours. Both donor and acceptor beads are resuspended in AlphaLISA 5X Epigenetics Buffer 1 Kit (PerkinElmer #AL008) prior to addition to the reaction. All manipulations and incubations with the donor and acceptor beads are done in subdued light. Signal is detected in an EnVision plate reader in Alpha mode. See ACS Med Chem Lett. 2014; 5(2):205-9.
Percent inhibition was calculated for each compound dilution and the concentration that produced 50% inhibition was calculated. This value is presented as the pIC50, which is the negative log of the IC50 value in molar.

Compound: Oc1cc2c(NCC3CC3)c3c(nc2cc1OCCCN1CCCC1)CCC3 [Example 2, dihydrochloride]
- IC50: 158 nM

Compound: CCNc1c2c(nc3cc(OCCCN4CCCC4)c(OC)cc13)CC(C)(C)C2 [Example 6, N-ethyl-7-methoxy-2,2-dimethyl-6-[3-(pyrrolidin-1-yl)propoxy]-1H,2H,3H-cyclopenta[b]quinolin-9-amine]
- IC50: 38 nM

Compound: COc1cc2c(NC(C)C)c3c(nc2cc1OCCCN1CCCC1)CC(C)(C)C3 [Example 7, 7-methoxy-2,2-dimethyl-N-(propan-2-yl)-6-[3-(pyrrolidin-1-yl)propoxy]-1H,2H,3H-cyclopenta[b]quinolin-9-amine]
- IC50: 30.9 nM

Compound: COCCNc1c2c(nc3cc(OCCCN4CCCC4)c(OC)cc13)CC(C)(C)C2 [Example 8, 7-methoxy-N-(2-methoxyethyl)-2,2-dimethyl-6-[3-(pyrrolidin-1-yl)propoxy]-1H,2H,3H-cyclopenta[b]quinolin-9-amine]
- IC50: 51.3 nM

Compound: COc1cc2c(NCCOC(C)C)c3c(nc2cc1OCCCN1CCCC1)CCC3 [Example 13, 7-methoxy-N-[2-(propan-2-yloxy)ethyl]-6-[3-(pyrrolidin-1-yl)propoxy]-1H,2H,3H-cyclopenta[b]quinolin-9-amine]
- IC50: 31.6 nM

Compound: COc1cc2c(NC[C@@H](C)OC)c3c(nc2cc1OCCCN1CCCC1)CCC3 [Example 14, 7-methoxy-N-[(2R)-2-methoxypropyl]-6-[3-(pyrrolidin-1-yl)propoxy]-1H,2H,3H-cyclopenta[b]quinolin-9-amine]
- IC50: 26.3 nM

Compound: CCCOCCNc1c2c(nc3cc(OCCCN4CCCC4)c(OC)cc13)CCC2 [Example 16, 7-methoxy-N-(2-propoxyethyl)-6-[3-(pyrrolidin-1-yl)propoxy]-1H,2H,3H-cyclopenta[b]quinolin-9-amine]
- IC50: 37.2 nM

Compound: CNc1c2c(nc3cc(OCCCN4CCCC4)c(OC)cc13)CCC2(C)C [Example 20, 7-methoxy-N,1,1-trimethyl-6-[3-(pyrrolidin-1-yl)propoxy]-1H,2H,3H-cyclopenta[b]quinolin-9-amine]
- IC50: 72.4 nM

Compound: CCNc1c2c(nc3cc(OCCCN4CCCC4)c(OC)cc13)CCC2(C)C [Example 21, N-ethyl-7-methoxy-1,1-dimethyl-6-[3-(pyrrolidin-1-yl)propoxy]-1H,2H,3H-cyclopenta[b]quinolin-9-amine]
- IC50: 83.2 nM

Compound: COc1cc2c(NC(C)C)c3c(nc2cc1OCCCN1CCCC1)CCC3(C)C [Example 22, 7-methoxy-1,1-dimethyl-N-(propan-2-yl)-6-[3-(pyrrolidin-1-yl)propoxy]-1H,2H,3H-cyclopenta[b]quinolin-9-amine]
- IC50: 174 nM

Compound: COCCNc1c2c(nc3cc(OCCCN4CCCC4)c(OC)cc13)CCC2(C)C [Example 23, 7-methoxy-N-(2-methoxyethyl)-1,1-dimethyl-6-[3-(pyrrolidin-1-yl)propoxy]-1H,2H,3H-cyclopenta[b]quinolin-9-amine]
- IC50: 468 nM

Compounds with a lower IC50, results first:

- IC50: 24 nM
Compound: CNc1c2c(nc3cc(OCCCN4CCCC4)c(OC)cc13)CC(C)(C)C2 [Example 24, 7-methoxy-N,2,2-trimethyl-6-[3-(pyrrolidin-1-yl)propoxy]-1H,2H,3H-cyclopenta[b]quinolin-9-amine]

- IC50: 22.4 nM
Compound: COc1cc2c(NC[C@H](C)OC)c3c(nc2cc1OCCCN1CCCC1)CCC3 [Example 15, 7-methoxy-N-[(2S)-2-methoxypropyl]-6-[3-(pyrrolidin-1-yl)propoxy]-1H,2H,3H-cyclopenta[b]quinolin-9-amine]

- IC50: 21.9 nM
Compound: COc1cc2c(NC[C@H]3CCCO3)c3c(nc2cc1OCCCN1CCCC1)CCC3 [Example 18, 7-methoxy-N-{[(2R)-oxolan-2-yl]methyl}-6-[3-(pyrrolidin-1-yl)propoxy]-1H,2H,3H-cyclopenta[b]quinolin-9-amine]

- IC50: 19.5 nM
Compound: COc1cc2c(NCCCOC(C)C)c3c(nc2cc1OCCCN1CCCC1)CCC3 [Example 17, 7-methoxy-N-[3-(propan-2-yloxy)propyl]-6-[3-(pyrrolidin-1-yl)propoxy]-1H,2H,3H-cyclopenta[b]quinolin-9-amine]

- IC50: 17.4 nM
Compound: CCOCCCNc1c2c(nc3cc(OCCCN4CCCC4)c(OC)cc13)CCC2 [Example 11, N-(3-ethoxypropyl)-7-methoxy-6-[3-(pyrrolidin-1-yl)propoxy]-1H,2H,3H-cyclopenta[b]quinolin-9-amine]

- IC50: 15.5 nM
Compound: COc1cc2c(NC[C@@H]3CCCO3)c3c(nc2cc1OCCCN1CCCC1)CCC3 [Example 25, 7-methoxy-N-{[(2S)-oxolan-2-yl]methyl}-6-[3-(pyrrolidin-1-yl)propoxy]-1H,2H,3H-cyclopenta[b]quinolin-9-amine]

- IC50: 12.6 nM
Compound: COc1cc2c(NC[C@H]3COCCO3)c3c(nc2cc1OCCCN1CCCC1)CCC3 [Example 27, N-{[(2S)-1,4-dioxan-2-yl]methyl}-7-methoxy-6-[3-(pyrrolidin-1-yl)propoxy]-1H,2H,3H-cyclopenta[b]quinolin-9-amine]

- IC50: 12 nM
Compound: COc1cc2c(NCc3ccn[nH]3)c3c(nc2cc1OCCCN1CCCC1)CCC3 [Example 9, 7-methoxy-N-[(1H-pyrazol-5-yl)methyl]-6-[3-(pyrrolidin-1-yl)propoxy]-1H,2H,3H-cyclopenta[b]quinolin-9-amine]

- IC50: 11.2 nM
Compound: COc1cc2c(NC[C@@H]3COCCO3)c3c(nc2cc1OCCCN1CCCC1)CCC3 [Example 26, N-{[(2R)-1,4-dioxan-2-yl]methyl}-7-methoxy-6-[3-(pyrrolidin-1-yl)propoxy]-1H,2H,3H-cyclopenta[b]quinolin-9-amine]

- IC50: 10 nM
Compound: COc1cc2c(NC[C@H]3CCOC3)c3c(nc2cc1OCCCN1CCCC1)CCC3 [Example 28, 7-methoxy-N-{[(3R)-oxolan-3-yl]methyl}-6-[3-(pyrrolidin-1-yl)propoxy]-1H,2H,3H-cyclopenta[b]quinolin-9-amine]

- IC50: 8.32 nM
Compound: CCCOCCCNc1c2c(nc3cc(OCCCN4CCCC4)c(OC)cc13)CCC2 [Example 12, 7-methoxy-N-(3-propoxypropyl)-6-[3-(pyrrolidin-1-yl)propoxy]-1H,2H,3H-cyclopenta[b]quinolin-9-amine]

- IC50: 7.94 nM
Compound: CNc1c2c(nc3cc(OCCCN4CCCC4)c(OC)cc13)CCCCC2 [Example 19, 2-methoxy-N-methyl-3-[3-(pyrrolidin-1-yl)propoxy]-6H,7H,8H,9H,10H-cyclohepta[b]quinolin-11-amine]

- IC50: 6.31 nM
Compound: CCOCCNc1c2c(nc3cc(OCCCN4CCCC4)c(OC)cc13)CCC2 [Example 10, N-(2-ethoxyethyl)-7-methoxy-6-[3-(pyrrolidin-1-yl)propoxy]-1H,2H,3H-cyclopenta[b]quinolin-9-amine]

- IC50: 6.17 nM
Compound: COC[C@H](C)Nc1c2c(nc3cc(OCCCN4CCCC4)c(OC)cc13)CCC2 [Example 4]

- IC50: 6.03 nM
Compound: COc1cc2c(NC[C@@H]3CCOC3)c3c(nc2cc1OCCCN1CCCC1)CCC3 [Example 29, 7-methoxy-N-{[(3S)-oxolan-3-yl]methyl}-6-[3-(pyrrolidin-1-yl)propoxy]-1H,2H,3H-cyclopenta[b]quinolin-9-amine]
